Literature values in patent publication US20090176772A1, “METHOD OF REVERSING LEFT VENTRICULAR REMODELING” (priority 2004, published 2009).

Test system: LV reverse remodeling
Conditions: historical data, Sabbah et al. (1994) Circ. 89:2852-2859; cited from earlier work

SMILES: CCOC(=O)[C@H](CCc1ccccc1)N[C@@H](C)C(=O)N1CCC[C@H]1C(=O)O [enalapril]
- Ability to reduce LV end-diastolic volume (FIG. 1): neither ranolazine, enalapril, nor metoprolol were independently able to reduce LV end-diastolic volume
- Ability to reduce LV end-systolic volume (FIG. 2): neither ranolazine, enalapril, nor metoprolol appear to independently reduce LV end-systolic volume

SMILES: COCCc1ccc(OCC(O)CNC(C)C)cc1 (stereo not shown) [metoprolol]
- Ability to reduce LV end-diastolic volume (FIG. 1): neither ranolazine, enalapril, nor metoprolol were independently able to reduce LV end-diastolic volume
- Ability to reduce LV end-systolic volume (FIG. 2): neither ranolazine, enalapril, nor metoprolol appear to independently reduce LV end-systolic volume
